Laboratory results taken from US20240246042A1, “METHOD FOR EMULSIFICATION USING IONIC FLUX” (Purdue Research Foundation, priority 2023, published 2024).
Where two headings read alike, the source gives them in different places.

Columns and labels:
[1] = Gibbs free energy of ion transfer and ion transfer potentials across the water and DCE phase; format: physicochemical
Description: The Gibbs free energy of ion transfer and the ion transfer potentials for relevant ions across the water and DCE phase were studied.

[2] = transfer from water to DCE; cited from earlier work
[3] = format: physicochemical; settings: aqueous phase None; cathode in aqueous, anode in DCE (per FIG. 23C, 24D-F); 5 mA, 5 min
Description: E) The cathode was placed in an aqueous phase containing no phase-transfer agent, and the anode was placed in DCE containing 0.1 M [NBu4][Br]. F) The cathode was placed in an aqueous phase containing no phase-transfer agent, and the anode was placed in DCE containing 0.1 M [NHx][ClO4].
All experiments were performed using bi-phasic systems consisting of immiscible solutions, such as 1,2-dichloroethane and water. Before experimentation, a platinum wire (r=1 mm) was sealed within a cell while maintaining an electrical connection. […] A secondary platinum wire (r=1 mm) was then submerged into the aqueous top layer to complete the circuit and allow for current to flow. Upon submersion, a current was then applied across the system using DC power supply. Current was maintained at 5 mA for a total duration of 5 min. Solutions were allowed to rest for an additional 5 minutes before additional experimentation or measurement.
The droplet sizes were measured. In these measurements, the resulting top layer and bottom layer from the prior section were allowed to rest for 5 minutes and were then transferred to a 1 cm glass cuvette. After transfer, the cuvette was inserted into the DLS instrumentation and was allowed to perform dynamic light scatter measurements to determine the size and intensity of the droplets formed during electro-emulsification. […]

| Δφw→DCE^0 (standard ion transfer potential) ([1]; transfer from water to DCE) [mV] | Compound | ΔGw→DCE^0 (standard Gibbs free energy of ion transfer) [2] [kcal/mol] | Average Size (d · nm) N = 3 [3] [nm] | Zeta Potential [3] [mV] | Δφw→DCE^0 (standard ion transfer potential) [1] [mV] |
| --- | --- | --- | --- | --- | --- |
| −399 | Br [Br^−] | 9.2 | – | – | – |
| −627 | [H+] [H^+] | 14.5 | – | – | – |
| −481 | Cl [Cl^−] | 11.1 | – | – | – |
| −548 | [K+] [K^+] | 12.6 | – | – | – |
| – | CCCCCC[N+](CCCCCC)(CCCCCC)CCCCCC.[O-][Cl+3]([O-])([O-])[O-] [[NHx4][ClO4], tetrahexylammonium perchlorate] | – | 3477 | −6.031 | – |
| −610 | [Na+] [Na^+] | 14.1 | – | – | – |
| – | CC[N+](CC)(CC)CC [NEt4^+, tetraethylammonium] | – | – | – | −44 |

| Compound | Δφw→DCE^0 (standard ion transfer potential) ([1]; transfer from water to DCE) [mV] | ΔGw→DCE^0 (standard Gibbs free energy of ion transfer) [2] [kcal/mol] | Average Size (d · nm) N = 3 [3] [nm] | Zeta Potential [3] [mV] | Δφw→DCE^0 (standard ion transfer potential) [1] [mV] |
| --- | --- | --- | --- | --- | --- |
| CCCC[N+](CCCC)(CCCC)CCCC [NBu4^+, tetrabutylammonium] | 226 | – | – | – | – |
| [O-][Cl+3]([O-])([O-])O [ClO4^−] | −178 | 4.11 | – | – | – |
| F[P-](F)(F)(F)(F)F [PF6^−] | −90 | 2.08 | – | – | – |
